Experimental data taken from US7371745B2, “Bis-transition-metal-chelate probes” (Rutgers, The State University of New Jersey, priority 2002, dated 2008).
Several values for one entry are separate records, joined by “and”; a condition that tells them apart may be missing. Equal values may be shown once.

Assays:
[1] = Spectroscopic properties of the fluorochromes; assay type: physicochemical
[2] = biological target: CAP-His6 (Escherichia coli, UniProt P0ACJ8); conditions: control titration with CAP (no His6 tag)
Procedure: Formation of a complex of the probe with a His6-tagged protein was detected as an increase in fluorescence anisotropy, A, arising from the increase in molecular size and corresponding decrease in rotational dynamics.
Reaction mixtures were titrated with 0-3 μM CAP-His6 (or CAP) by successive addition of 0.5-4 μl aliquots of 2-4 μM CAP-His6 (or CAP) in the same buffer. Fluorescence anisotropy was determined at the start of the titration and 5 min after each successive addition in the titration. All solutions were maintained at 25° C.
Fluorescence measurements were performed using a commercial steady-state fluorescence instrument (QM-1, PTI) equipped with T-format Glan-Thompson polarizers (PTI). […] Slit widths were 10 nm. Fluorescence emission intensities were corrected for background by subtraction of fluorescence emissions intensities for control reactions containing identical concentrations of CAP-His6 or CAP but not containing probe.
Fluorescence anisotropy, A, was calculated using: A=(IVV−GIVH)/(IVV+2GVH) where IVV and IVH are the fluorescent intensities with the excitation polarizer at a vertical position and the emission polarizers at vertical and horizontal positions, respectively, and G is the grating correction factor. […] Equilibrium dissociation constants were calculated using linear regression.

[3] = biological target: T1, (CAP-His6)-DNA^F complex (Escherichia coli, UniProt P0ACJ8); conditions: control titration with the CAP-DNA^F complex
Procedure: FRET assays using the probes according to the invention then were performed to verify interactions, to detect a target material, and to measure an intermolecular distance.
Reaction mixtures (200 μl, in 50 μl quartz micro-cuvettes (Starna)) contained 5 nM DNA^F and 50 nM CAP-His6 (or CAP) in buffer C. […] Fluorescence emission was determined at the start of the titration and 5 min after each successive addition in the titration. All solutions were maintained at 25° C.
Fluorescence emission intensities, F, were measured using a commercial steady-state fluorescence instrument (QM-1, PTI) equipped with T-format Glan-Thompson polarizers (PTI) set at 54.7° (“magic angle”).
Data were plotted as E vs. titrant concentration, and binding curves and equilibrium dissociation constants were calculated using non-linear regression (as described in Gunasekera, A. et al., J. Biol. Chem., 267:14,713-14,720 (1992)).

[4] = biological target: T1, (CAP-His6)-DNA^F complex; conditions: for donor-acceptor distance, R: fluorescein on DNA^F to probe on His6 of CAP-His6

T1 sequence (P0ACJ8 2-210, added parts left off, one chain of several): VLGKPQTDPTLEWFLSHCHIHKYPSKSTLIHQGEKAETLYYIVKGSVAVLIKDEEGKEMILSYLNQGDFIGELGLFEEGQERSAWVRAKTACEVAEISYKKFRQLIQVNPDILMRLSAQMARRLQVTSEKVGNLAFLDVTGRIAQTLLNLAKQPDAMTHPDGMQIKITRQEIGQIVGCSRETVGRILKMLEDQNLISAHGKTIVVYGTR
CAP-His6, sequence (P0ACJ8 2-210, added parts left off): as the sequence (P0ACJ8 2-210, added parts left off, one chain of several) above

| Substance | quantum yield (Q) [1] | λmax, em [1] | λmax, exc [1] | specificity [2] | specificity [3] | donor-acceptor distance, R [4] | efficiency of FRET at saturation, Esat ([4]; fluorescein donor on DNA^F, probe as acceptor) |
| --- | --- | --- | --- | --- | --- | --- | --- |
| (Ni^2+-NTA)2-Cy3 | 0.04 | 565 nm | 552 nm | > 95% | > 95% | 58 Å |  |
| (Ni^2+-NTA)2-Cy5 | 0.05 | 668 nm | 650 nm | > 95% | > 95% | 53 Å | 0.45 and 0.25 |
